Reference: ChEMBL document CHEMBL1201862, “PubChem BioAssay data set” (2004)
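1) Cells in 96-well plates. 2) Compound, 48 h, 5 concentrations. 3) Linear interpolation between surrounding doses. 4) Unreached endpoint = highest concentration. At the GI50, growth is halved.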 The source made the active and inactive calls. No stated cut-off is given here; in the data, active = GI50 up to about 1.1 µM and inactive = higher.

Assays:
Test in all cases: NCI tumour cell line growth inhibition, 48 h
A498 = test system: A498
ACHN = test system: ACHN
CCRF-CEM = test system: CCRF-CEM
COLO 205 = test system: COLO 205
HL-60 = test system: HL-60
HT-29 = test system: HT-29
K562 = test system: K562
LOX IMVI = test system: LOX IMVI
M14 = test system: M14
NCI-H23 = test system: NCI-H23
NCI/ADR-RES = test system: NCI/ADR-RES
OVCAR-8 = test system: OVCAR-8
RXF 393 = test system: RXF 393
SF-539 = test system: SF-539
SK-MEL-2 = test system: SK-MEL-2
SW-620 = test system: SW-620
TK-10 = test system: TK-10
UACC-257 = test system: UACC-257
UACC-62 = test system: UACC-62
SK-MEL-5 = test system: SK-MEL-5

Row | SMILES | GI50 (A498) | GI50 (ACHN) | GI50 (CCRF-CEM) | GI50 (COLO 205) | GI50 (HL-60) | GI50 (HT-29) | GI50 (K562) | GI50 (LOX IMVI) | GI50 (M14) | GI50 (NCI-H23) | GI50 (NCI/ADR-RES) | GI50 (OVCAR-8) | GI50 (RXF 393) | GI50 (SF-539) | GI50 (SK-MEL-2) | GI50 (SW-620) | GI50 (TK-10) | GI50 (UACC-257) | GI50 (UACC-62) | GI50 (SK-MEL-5)
1 | CC(CC(C)[C@H]1CCC2[C@H]3C(CC[C@@]21C)[C@@]1(C)CCC(O)C[C@H]1C[C@@H]3O)C(=O)O (stereo partly drawn) | > 100 µM (inactive) | > 100 µM (inactive) | > 100 µM (inactive) | > 100 µM (inactive) | > 100 µM (inactive) | > 100 µM (inactive) | 26.2 µM (inactive) | > 100 µM (inactive) | > 100 µM (inactive) | > 100 µM (inactive) | > 100 µM (inactive) | > 100 µM (inactive) | > 100 µM (inactive) | > 100 µM (inactive) | > 100 µM (inactive) | > 100 µM (inactive) | > 100 µM (inactive) | > 100 µM (inactive) | > 100 µM (inactive) | 
2 | Nc1ncnc2c1ncn2C1C=C(CO)C(O)C1O (stereo not drawn) | 15.9 µM (inactive) | 4.48 µM (inactive) | 0.305 µM (active) | 3.32 µM (inactive) | 0.34 µM (active) | 2.06 µM (inactive) | 0.0452 µM (active) | 3 µM (inactive) | 9.57 µM (inactive) | 2.83 µM (inactive) | 5.61 µM (inactive) | 3.75 µM (inactive) | 9.59 µM (inactive) | 4.26 µM (inactive) | 29.7 µM (inactive) | 2.06 µM (inactive) | 6.64 µM (inactive) | 1.35 µM (inactive) | 3.56 µM (inactive) | 20.3 µM (inactive)
3 | O=C(O)CCS/C(=C\C(SCCC(=O)O)c1ccc(Cl)cc1)c1ccc(Cl)cc1 (stereo not drawn) | 19.7 µM (inactive) | 46.3 µM (inactive) | 30.1 µM (inactive) | 21.4 µM (inactive) | 36.7 µM (inactive) | 43.6 µM (inactive) | 35.1 µM (inactive) | 25.5 µM (inactive) | 47.9 µM (inactive) | 42.5 µM (inactive) | > 100 µM (inactive) | 53.5 µM (inactive) | 39.7 µM (inactive) | 37.2 µM (inactive) | 26.5 µM (inactive) | 28.1 µM (inactive) | 80.7 µM (inactive) | > 100 µM (inactive) | 18.4 µM (inactive) | 48.3 µM (inactive)
4 | CN(C)/N=C1\CC(c2ccccc2)C(C#N)(C#N)C1(C#N)C#N (stereo not drawn) | 18.2 µM (inactive) | 18.9 µM (inactive) | 6.14 µM (inactive) | 5.56 µM (inactive) | 2.5 µM (inactive) | 26.1 µM (inactive) | 3.2 µM (inactive) | 27.5 µM (inactive) | 17.4 µM (inactive) | 24.1 µM (inactive) | 26.8 µM (inactive) | 21.1 µM (inactive) | 26.5 µM (inactive) | 41.4 µM (inactive) | 21 µM (inactive) | 6.61 µM (inactive) | 17.5 µM (inactive) | 18.6 µM (inactive) | 16 µM (inactive) | 11.6 µM (inactive)
5 | CN(C)/C=C/c1nnnn1-c1ccc(I)cc1 | 40.8 µM (inactive) | 22 µM (inactive) | 10.6 µM (inactive) | > 100 µM (inactive) | 6.21 µM (inactive) | 22.9 µM (inactive) | 19 µM (inactive) | 16.6 µM (inactive) | 14.3 µM (inactive) | 24.7 µM (inactive) | 23.8 µM (inactive) | 19.5 µM (inactive) | 28 µM (inactive) | 19.5 µM (inactive) |  | 15.3 µM (inactive) | 30.5 µM (inactive) | 27 µM (inactive) | 12.4 µM (inactive) | 16.6 µM (inactive)
6 | CCCCCC(/C=C/[C@@H]1CC(=O)C[C@H]1O[Si](C)(C)C(C)(C)C)OCOCCOC (stereo partly drawn) | 11.9 µM (inactive) | 2.96 µM (inactive) | > 100 µM (inactive) | 5.2 µM (inactive) | > 100 µM (inactive) | 3.48 µM (inactive) | 2.4 µM (inactive) | 2.7 µM (inactive) | 4.04 µM (inactive) | 3.56 µM (inactive) | 2.94 µM (inactive) | 4.23 µM (inactive) | 2.24 µM (inactive) | 2.32 µM (inactive) | 4.22 µM (inactive) | 2.96 µM (inactive) | 12.9 µM (inactive) | 3.68 µM (inactive) | 2.7 µM (inactive) | 3.33 µM (inactive)
7 | COc1ccc(C(=O)N=C2N(c3ccccc3)C(=N/c3ccccc3)/C(=N\c3ccccc3)N2c2ccccc2)cc1 | 19.2 µM (inactive) | 22.5 µM (inactive) | > 100 µM (inactive) | > 100 µM (inactive) | > 100 µM (inactive) | > 95.3 µM (inactive) | > 100 µM (inactive) | 49 µM (inactive) | 8.22 µM (inactive) | 39.3 µM (inactive) | > 100 µM (inactive) | 20 µM (inactive) | 2.26 µM (inactive) | 35 µM (inactive) | 21.3 µM (inactive) | 99.8 µM (inactive) | 18.5 µM (inactive) | 48.2 µM (inactive) | 37.1 µM (inactive) | 23.2 µM (inactive)
